Data from publication PMC11320178 (Chemical Science, 2024).
Where no end group is shown, it is not given here.

How the values were obtained:
[1] = pH 2
[2] = Stability of the cyclic peptide against ROS environment; type: physicochemical; conditions: P1 ∼100 μM, ∼150 μM H2O2 in PBS pH 7.4, after 6 h, LC-MS
[3] = type: physicochemical; conditions: equimolar semicarbazide derivative (∼100 μM) in PBS pH 7.4, 20 min, LC-MS

Substance: CIITRPC (also: sidechain bridge or staple (positions not given here)) [P1]
- Stability under a wide range of pH values (no complete dissociation of the thiazolidine ring) [1]: high stability
- Stability in H2O2 [2]: remarkable stability
- Linearization by semicarbazide (diazaborine conjugate formation) [3]: linearized
